Assay [1] relates to mCXCL10. The conditions noted are these: sitagliptin vs control. How it is done:
Plates were washed twice with 300 μL of PBS. Blocking was done with BSA 1% (proteinase free, Gibco), in PBS for 2h at room temperature. Plates were washed 3 times with 300 μL of 0.05% Tween-20 in PBS. Tumor and plasma samples were diluted in BSA 1% and incubated for 2h, at room temperature. To obtain a standard curve, and to control for the cross-reactivity of the detection antibody, dilutions of recombinant mCXCL10 (Peprotech) or DPP4-digested mCXCL10(3-77) were incubated in parallel. For detection of mCXCL10(1-77), biotinylated α-mCXCL10(1-77) (AbDSerotec, 0.5 μg/ml, clone AbD17185.1), Streptavidin-HRP (BD Biosciences) and 1-STEP ULTRA TMB (Thermo Scientific) were used.
Enzymatic reactions were stopped with HCL 1N and plates were read with 450 nm in a Lab-systems […] MS (Thermo) reader. […] Detection of mDPP4, mCCL22 and mCXCL12 was done with the DUOSET® ELISA kit (R&D). Detection of mVEGF, mCCL2 and mCCL3 was done with a multiplex kit (Invitrogen).

The test system of assay [2] is CT26 tumors. Put plainly: Flow cytometry of leukocytes infiltrating CT26 tumors. The class given is in vivo, mouse. To be noted: day 11, sitagliptin vs control. In general terms: Flow cytometry measures light scatter and fluorescence of single cells or particles in a stream.
For assay [3], the system named is MEK1 induced skin tumors. To be noted: Arwert and colleagues; cited from earlier work.
Assay [4] deals with mCXCL10. The assay can be described thus: Chemokine quantification in B16F10 tumor homogenates (ELISA/Luminex). The class given is in vivo, mouse. How it is done:
Soluble extracts were collected after centrifugation of tumor homogenates.
For detection of mCXCL10(1-77), MAXISORP PLATES® (Nunc) were coated with 4 μg/ml of α-mCXCL10 capturing antibody (MAB466, R&D) in PBS and incubated over night at 4° C. Plates were washed twice with 300 μL of PBS. […] Tumor and plasma samples were diluted in BSA 1% and incubated for 2h, at room temperature.
A general note: In an ELISA, binding on a coated surface is turned into a signal by an enzyme label.

The target of assay [5] is DPP8 (Homo sapiens, UniProt Q6V1X1). The conditions noted are these: Verspohl 2012; Huan et al. 2015; cited from earlier work.
DPP8, sequence (Q6V1X1 whole entry, species assumed): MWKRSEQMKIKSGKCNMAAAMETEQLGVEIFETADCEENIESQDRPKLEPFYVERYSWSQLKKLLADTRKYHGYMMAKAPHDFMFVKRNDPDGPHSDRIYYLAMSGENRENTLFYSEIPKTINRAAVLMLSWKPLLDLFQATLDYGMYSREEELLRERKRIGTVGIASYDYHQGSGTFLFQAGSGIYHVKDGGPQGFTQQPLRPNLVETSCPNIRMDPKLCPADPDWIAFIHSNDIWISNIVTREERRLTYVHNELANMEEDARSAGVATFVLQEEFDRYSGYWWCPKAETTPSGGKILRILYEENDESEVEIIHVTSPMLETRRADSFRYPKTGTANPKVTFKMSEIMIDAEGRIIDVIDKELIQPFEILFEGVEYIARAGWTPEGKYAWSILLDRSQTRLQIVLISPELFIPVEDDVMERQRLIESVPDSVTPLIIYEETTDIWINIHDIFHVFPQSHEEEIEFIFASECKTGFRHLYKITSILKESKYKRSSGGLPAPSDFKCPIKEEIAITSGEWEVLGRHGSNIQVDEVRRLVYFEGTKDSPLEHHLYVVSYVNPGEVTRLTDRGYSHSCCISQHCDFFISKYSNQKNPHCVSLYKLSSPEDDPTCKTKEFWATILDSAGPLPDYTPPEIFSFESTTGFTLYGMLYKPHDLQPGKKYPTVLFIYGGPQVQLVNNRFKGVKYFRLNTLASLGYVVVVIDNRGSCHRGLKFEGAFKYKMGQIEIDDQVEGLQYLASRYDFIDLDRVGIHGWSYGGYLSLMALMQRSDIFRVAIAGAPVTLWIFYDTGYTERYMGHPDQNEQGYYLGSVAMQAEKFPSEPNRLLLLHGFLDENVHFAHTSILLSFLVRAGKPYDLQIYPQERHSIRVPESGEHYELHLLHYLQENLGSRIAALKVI
Assay [6] has as its system M04 (B16F10 transfected with OVA). Put plainly: B16-OVA (M04) tumor growth with OT1 adoptive T cell transfer. The class given is in vivo, mouse. How it is done: (§1) B16F10 and M04 (Ovalbumin-expressing B16F10 cells, gift from C. Reis e Sousa) tumor cells were cultured in DMEM (Gibco) supplemented with 10% FCS (PAA), 0.1 mM non-essential amino acids, 1 mM sodium pyruvate, 10 mM Hepes, 70 μM beta-mercaptoethanol and 23 μg/ml gentamycin (all from Gibco). CT26 colon carcinoma cells were cultured in RPMI (Gibco) supplemented as described for DMEM. Cells for injections were passaged 1-2 times after thawing, before use. WT and genetically modified mice were subcutaneously injected with 2×10^5 B16 or 5×10^5 CT26 cells in the shaved right flank. When indicated, mice received an intra-tumoral injection of 1 μg of recombinant mCXCL10, 5 μg CpG-A in DOPTAP or vehicle control. […] Tumor height and width were measured with a caliper and tumor volume was calculated (Elliptical volume=width^2×height×0.523). […] 15 days after tumor cell injection, lungs were dissected, placed in Fekete's solution and metastatic foci were counted. […]

For assay [7], the system named is B16F10 cells. The assay can be described thus: Model of metastatic melanoma (intravenous B16F10, lung metastatic foci). The class given is in vivo, mouse. To be noted: 15 days after intravenous injection of B16F10 cells. How it is done: as §1

As for `N[C@@H](CC(=O)N1CCn2c(nnc2C(F)(F)F)C1)Cc1cc(F)c(F)cc1F` [sitagliptin], in assay [1] (CpG-A intravenously), the “quantity of plasma mCCL2” value is reported as “higher”. For the same compound, the “CpG-A-induced plasma total CXCL10” value in assay [1] (WT mice, 5 μg CpG-A intravenously) was “stabilization of CpG-A-induced plasma CXCL10”. The “quantity of plasma mCXCL10(1-77)” value in assay [1] (WT mice, CpG-A intravenously) was “significantly higher”. Further, in assay [2], the “infiltration of lymphocytes, including T cell subsets and NK cells, into CT26 tumors” value is “enhanced infiltration of lymphocytes”; the “number of tumor associated B cells, eosinophils and CD25hi regulatory T cells in CT26 tumors” value is “did not change”. Further, the malignant transformation result in assay [3] is on record as “delays malignant transformation”. For the same compound, the “tumor associated mCXCL10 concentration” value in assay [4] (B16F10 tumors, sitagliptin-treated vs control mice) is reported as “elevated concentrations”. In addition, in assay [4] (after intra-tumoral CpG-A, sitagliptin vs control), the “full-length mCXCL10(1-77) among total mCXCL10 in tumor” value is given as “protected the full-length form of the molecule”. Moreover, the “intra-tumoral expression of mCCL2 and mCCL22 after CpG-A” value in assay [4] (control vs sitagliptin treated animals) was “no significant differences”. In addition, the “effect on DPP8 activity” value in assay [5] is on record as “no effect”. Besides, the “reduction in tumor size” value in assay [6] (B16-OVA tumors, day 15) was approximately 50%. For the same compound, the B16-OVA tumor growth result in assay [6] (monotherapies vs control) was “significant delay”. Besides, the “number of lung metastases” value in assay [7] is reported as “significantly reduced the number of lung metastases”.

The values above are taken from patent US11883398B2, “Dipeptidylpeptidase 4 inhibition enhances lymphocyte trafficking, improving both naturally occurring tumor immunity and immunotherapy” (INSTITUT PASTEUR, priority 2015, dated 2024).
